In patent US11427558B1, “Indazoles and azaindazoles as LRRK2 inhibitors” (ESCAPE Bio, Inc., priority 2019, dated 2022):
pIC50: −log10 of the molar value.

What was measured:
[1] = molecular target: Recombinant G2019S-LRRK2 protein (Homo sapiens (Human), UniProt Q5S007, G2019S); test: LRRK2 kinase activity, LanthaScreen TR-FRET assay (G2019S); assay type: biochemical; conditions: LRRKtide 400 nM, 25 μM ATP, 60 min
Summary of the method: (§1)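 Recombinant human wild-type or G2019S LRRK2 phosphorylated fluorescein-labelled LRRKtide (ERM-based) with ATP and serially diluted compound for 60 min at room temperature.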

[2] = molecular target: Recombinant wild type LRRK2 protein (Homo sapiens (Human), UniProt Q5S007); test: LRRK2 kinase activity, LanthaScreen TR-FRET assay (wild type); assay type: biochemical; conditions: LRRKtide 400 nM, 25 μM ATP, 60 min; read-out: LRRK2 WT IC50
Sequence of Recombinant wild type LRRK2 protein (Q5S007 whole entry): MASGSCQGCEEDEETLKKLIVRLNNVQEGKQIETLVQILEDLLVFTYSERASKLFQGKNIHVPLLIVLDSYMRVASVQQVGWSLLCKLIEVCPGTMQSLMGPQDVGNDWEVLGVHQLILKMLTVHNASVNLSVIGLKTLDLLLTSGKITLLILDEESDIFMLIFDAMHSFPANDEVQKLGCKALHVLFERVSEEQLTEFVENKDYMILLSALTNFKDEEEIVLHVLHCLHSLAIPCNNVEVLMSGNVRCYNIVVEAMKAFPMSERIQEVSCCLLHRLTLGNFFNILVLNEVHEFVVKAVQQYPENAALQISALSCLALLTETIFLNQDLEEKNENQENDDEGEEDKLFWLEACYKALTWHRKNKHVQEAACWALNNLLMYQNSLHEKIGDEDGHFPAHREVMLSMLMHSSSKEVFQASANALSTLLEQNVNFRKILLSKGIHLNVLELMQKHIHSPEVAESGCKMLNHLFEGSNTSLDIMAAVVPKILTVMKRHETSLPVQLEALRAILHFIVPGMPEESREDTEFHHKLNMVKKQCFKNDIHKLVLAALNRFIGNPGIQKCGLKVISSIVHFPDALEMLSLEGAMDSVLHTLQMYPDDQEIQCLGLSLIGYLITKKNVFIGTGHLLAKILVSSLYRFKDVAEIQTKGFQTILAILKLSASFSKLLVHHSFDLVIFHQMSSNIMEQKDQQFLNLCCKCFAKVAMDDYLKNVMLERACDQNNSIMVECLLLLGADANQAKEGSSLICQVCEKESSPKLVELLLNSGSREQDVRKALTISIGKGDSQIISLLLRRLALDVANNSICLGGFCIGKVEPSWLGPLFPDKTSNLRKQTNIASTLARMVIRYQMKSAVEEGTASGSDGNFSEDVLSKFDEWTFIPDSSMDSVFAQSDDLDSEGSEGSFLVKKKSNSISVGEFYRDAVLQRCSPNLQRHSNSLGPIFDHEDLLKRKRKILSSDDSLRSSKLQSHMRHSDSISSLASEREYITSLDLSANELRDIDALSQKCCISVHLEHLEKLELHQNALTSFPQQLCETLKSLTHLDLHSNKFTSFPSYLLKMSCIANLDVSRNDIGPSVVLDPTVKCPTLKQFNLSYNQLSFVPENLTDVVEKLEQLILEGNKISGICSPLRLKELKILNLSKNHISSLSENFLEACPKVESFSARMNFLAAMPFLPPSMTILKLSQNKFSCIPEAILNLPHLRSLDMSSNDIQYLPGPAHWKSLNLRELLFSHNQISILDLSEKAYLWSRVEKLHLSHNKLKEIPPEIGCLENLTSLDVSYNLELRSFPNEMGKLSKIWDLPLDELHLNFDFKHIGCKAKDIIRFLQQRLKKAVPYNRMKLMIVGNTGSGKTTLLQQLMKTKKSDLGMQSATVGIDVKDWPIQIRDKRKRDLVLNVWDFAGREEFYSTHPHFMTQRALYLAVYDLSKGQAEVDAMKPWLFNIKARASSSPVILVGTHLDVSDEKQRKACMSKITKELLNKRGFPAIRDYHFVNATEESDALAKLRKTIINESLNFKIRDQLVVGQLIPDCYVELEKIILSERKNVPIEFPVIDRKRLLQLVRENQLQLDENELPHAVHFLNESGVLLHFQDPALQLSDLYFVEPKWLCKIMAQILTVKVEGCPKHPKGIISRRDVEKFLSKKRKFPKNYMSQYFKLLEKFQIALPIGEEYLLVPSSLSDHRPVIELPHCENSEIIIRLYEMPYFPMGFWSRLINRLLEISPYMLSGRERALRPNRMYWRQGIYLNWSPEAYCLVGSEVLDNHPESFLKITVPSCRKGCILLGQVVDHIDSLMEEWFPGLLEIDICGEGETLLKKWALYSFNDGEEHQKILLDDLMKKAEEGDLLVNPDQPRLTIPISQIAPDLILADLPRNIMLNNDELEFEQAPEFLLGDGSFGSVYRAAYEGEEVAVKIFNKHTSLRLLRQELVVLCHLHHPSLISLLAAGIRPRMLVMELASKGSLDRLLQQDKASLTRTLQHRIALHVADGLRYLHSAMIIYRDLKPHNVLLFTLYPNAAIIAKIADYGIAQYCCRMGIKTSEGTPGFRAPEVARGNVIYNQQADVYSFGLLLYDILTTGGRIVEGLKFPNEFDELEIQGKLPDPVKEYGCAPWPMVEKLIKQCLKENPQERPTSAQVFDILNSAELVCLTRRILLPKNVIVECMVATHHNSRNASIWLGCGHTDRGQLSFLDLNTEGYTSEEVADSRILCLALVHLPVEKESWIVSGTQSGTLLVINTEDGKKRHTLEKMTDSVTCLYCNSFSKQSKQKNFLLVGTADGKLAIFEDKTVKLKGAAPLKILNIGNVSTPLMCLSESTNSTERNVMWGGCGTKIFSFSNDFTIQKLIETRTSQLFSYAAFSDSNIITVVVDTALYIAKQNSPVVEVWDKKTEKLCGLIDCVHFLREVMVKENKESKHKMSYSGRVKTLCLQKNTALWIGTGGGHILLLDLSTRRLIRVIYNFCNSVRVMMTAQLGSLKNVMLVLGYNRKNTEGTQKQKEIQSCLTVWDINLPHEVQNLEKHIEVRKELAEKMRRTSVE
Summary of the method: as §1

Sequence of Recombinant G2019S-LRRK2 protein (Q5S007 whole entry G2019S): as the sequence (Q5S007 whole entry) above, with G2019S counted along it

Row | Compound | pIC50 [1] | pIC50 [2]
1 | N#Cc1ccc(C(=O)Nc2ccc3[nH]nc(-c4ccoc4)c3c2)cc1 [Example 11, 4-Cyano-N-(3-(furan-3-yl)-1H-indazol-5-yl)benzamide] | > 7.00 | 6.00 to 7.00
2 | Cc1cc(C#N)cnc1C(=O)Nc1ccc2[nH]nc(-c3cn(C)nn3)c2c1 [Example 241, 5-Cyano-3-methyl-N-(3-(1-methyl-1H-1,2,3-triazol-4-yl)-1H-indazol-5-yl)picolinamide] | 6.00 to 7.00 | 6.00 to 7.00
3 | Cc1cccc(-c2n[nH]c3ccc(NC(=O)c4ncc(C#N)cc4C)cc23)n1 [Example 112, 5-Cyano-3-methyl-N-(3-(6-methylpyridin-2-yl)-1H-indazol-5-yl)picolinamide] | 6.00 to 7.00 | 6.00 to 7.00
4 | Cc1c(C#N)cnc(C(=O)Nc2ccc3[nH]nc(/C=C/C(F)(F)F)c3c2)c1C [Example 266, (E)-5-Cyano-3,4-dimethyl-N-(3-(3,3,3-trifluoroprop-1-en-1-yl)-1H-indazol-5-yl)picolinamide] | > 7.00 | 6.00 to 7.00
5 | N#Cc1cccc(C(=O)Nc2ccc3[nH]nc(-c4cnco4)c3c2)c1F [Example 199, 3-Cyano-2-fluoro-N-(3-(oxazol-5-yl)-1H-indazol-5-yl)benzamide] | > 7.00 | > 7.00
6 | COc1n[nH]c2ccc(NC(=O)c3nc(Br)c(C#N)c(C)c3C)cc12 [Example 329, 6-Bromo-5-cyano-N-(3-methoxy-1H-indazol-5-yl)-3,4-dimethylpicolinamide] | > 7.00 | > 7.00
7 | Cc1cc(C#N)cnc1C(=O)Nc1ccc2[nH]nc(-c3ccsc3)c2c1 [Example 73, 5-Cyano-3-methyl-N-(3-(thiophen-3-yl)-1H-indazol-5-yl)picolinamide] | > 7.00 | 6.00 to 7.00
8 | Cc1cc(C(=O)Nc2ccc3[nH]nc(-c4ccoc4)c3c2)nc(C)c1C#N [Example 85, 5-cyano-N-(3-(furan-3-yl)-1H-indazol-5-yl)-4,6-dimethylpicolinamide] | > 7.00 | 5.00 to 6.00
9 | N#Cc1cccc(C(=O)Nc2ccc3[nH]nc(-c4ccncc4)c3c2)c1 [Example 21, 3-Cyano-N-(3-(pyridin-4-yl)-1H-indazol-5-yl)benzamide] | > 7.00 | > 7.00
10 | Cc1cc(C#N)cnc1C(=O)Nc1ccc2[nH]nc(-c3ccnnc3)c2c1 [Example 272, 5-Cyano-3-methyl-N-(3-(pyridazin-4-yl)-1H-indazol-5-yl)picolinamide] | > 7.00 | 6.00 to 7.00
11 | Cn1nc(C(=O)Nc2ccc3[nH]nc(-c4ccoc4)c3c2)cc1C#N [Example 97, 5-Cyano-N-(3-(furan-3-yl)-1H-indazol-5-yl)-1-methyl-1H-pyrazole-3-carboxamide] | > 7.00 | 6.00 to 7.00
12 | Cc1nc(C(=O)Nc2ccc3[nH]nc(C4CC4)c3c2)c(C)c(C)c1C#N [Example 305, 5-Cyano-N-(3-cyclopropyl-1H-indazol-5-yl)-3,4,6-trimethylpicolinamide] | > 7.00 | 6.00 to 7.00
13 | Cc1c(C(=O)Nc2ccc3[nH]nc(Br)c3c2)nc(Cl)c(C#N)c1C [Example 324, N-(3-Bromo-1H-indazol-5-yl)-6-chloro-5-cyano-3,4-dimethylpicolinamide] | > 7.00 | > 7.00
14 | Cc1c(C#N)cnc(C(=O)Nc2ccc3[nH]nc(-c4cnn(C)c4)c3c2)c1C [Example 187, 5-Cyano-3,4-dimethyl-N-(3-(1-methyl-1H-pyrazol-4-yl)-1H-indazol-5-yl)picolinamide] | > 7.00 | > 7.00
15 | CCc1cc(-c2n[nH]c3ccc(NC(=O)c4ncc(C#N)c(C)c4C)cc23)ccn1 [Example 279, 5-Cyano-N-(3-(2-ethylpyridin-4-yl)-1H-indazol-5-yl)-3,4-dimethylpicolinamide] | > 7.00 | > 7.00
16 | Cc1ncc(C#N)nc1C(=O)Nc1ccc2[nH]nc(-c3ccoc3)c2c1 [Example 147, 6-Cyano-N-(3-(furan-3-yl)-1H-indazol-5-yl)-3-methylpyrazine-2-carboxamide] | > 7.00 | > 7.00
17 | Cc1cc(C#N)nnc1C(=O)Nc1ccc2[nH]nc(-c3ccoc3)c2c1 [Example 162, 6-Cyano-N-(3-(furan-3-yl)-1H-indazol-5-yl)-4-methylpyridazine-3-carboxamide] | > 7.00 | 6.00 to 7.00
18 | Cc1cc(C#N)cnc1C(=O)Nc1ccc2[nH]nc(-c3ccnc(N4C[C@@H](C)O[C@@H](C)C4)c3)c2c1 [Example 118, 5-Cyano-N-(3-(2-((2S,6R)-2,6-dimethylmorpholino)pyridin-4-yl)-1H-indazol-5-yl)-3-methylpicolinamide] | > 7.00 | > 7.00
19 | Cc1cc(-c2n[nH]c3ccc(NC(=O)c4ncc(C#N)cc4C)cc23)ccn1 [Example 74, 5-Cyano-3-methyl-N-(3-(2-methylpyridin-4-yl)-1H-indazol-5-yl)picolinamide] | > 7.00 | > 7.00

Row | Compound | pIC50 [1] | pIC50 [2]
20 | Cc1nc(C(=O)Nc2ccc3[nH]nc(C)c3c2)c(Cl)c(C)c1C#N [Example 275, 3-Chloro-5-cyano-4,6-dimethyl-N-(3-methyl-1H-indazol-5-yl)picolinamide] | > 7.00 | 6.00 to 7.00
21 | Cc1c(C#N)cnc(C(=O)Nc2ccc3[nH]nc(Cl)c3c2)c1C [Example 301, N-(3-Chloro-1H-indazol-5-yl)-5-cyano-3,4-dimethylpicolinamide] | > 7.00 | 5.00 to 6.00
22 | Cc1c(C#N)cnc(C(=O)Nc2ccc3[nH]nc(C=C4CCN(C(=O)OC(C)(C)C)CC4)c3c2)c1C [Example 259, tert-butyl 4-((5-(5-Cyano-3,4-dimethylpicolinamido)-1H-indazol-3-yl)methylene)piperidine-1-carboxylate] | < 5.00 | < 5.00
23 | Cc1cc(C#N)cnc1C(=O)Nc1ccc2[nH]nc(-c3cnoc3)c2c1 [Example 146, 5-Cyano-N-(3-(isoxazol-4-yl)-1H-indazol-5-yl)-3-methylpicolinamide] | > 7.00 | 6.00 to 7.00
24 | Cc1nn(C)c(C#N)c1C(=O)Nc1ccc2[nH]nc(-c3ccoc3)c2c1 [Example 81, 5-Cyano-N-(3-(furan-3-yl)-1H-indazol-5-yl)-1,3-dimethyl-1H-pyrazole-4-carboxamide] | > 7.00 | > 7.00
25 | Cc1c(C#N)cnc(C(=O)Nc2ccc3[nH]nc(-c4cncs4)c3c2)c1C [Example 227, 5-Cyano-3,4-dimethyl-N-(3-(thiazol-5-yl)-1H-indazol-5-yl)picolinamide] | > 7.00 | > 7.00
26 | C=C(C)c1n[nH]c2ccc(NC(=O)c3ncc(C#N)c(C)c3C)cc12 [Example 267, 5-Cyano-3,4-dimethyl-N-(3-(prop-1-en-2-yl)-1H-indazol-5-yl)picolinamide] | > 7.00 | 6.00 to 7.00
27 | Cc1cc(C#N)cnc1C(=O)Nc1ccc2[nH]nc(-c3ccc(=O)n(C)c3)c2c1 [Example 151, 5-Cyano-3-methyl-N-(3-(1-methyl-6-oxo-1,6-dihydropyridin-3-yl)-1H-indazol-5-yl)picolinamide] | > 7.00 | 6.00 to 7.00
28 | COc1cccc(-c2n[nH]c3ccc(NC(=O)c4ncc(C#N)cc4C4CC4)cc23)c1 [Example 311, 5-Cyano-3-cyclopropyl-N-(3-(3-methoxyphenyl)-1H-indazol-5-yl)picolinamide] | > 7.00 | 6.00 to 7.00
29 | Cc1c(C(=O)Nc2ccc3[nH]nc(C4CC4)c3c2)nc(C(F)F)c(C#N)c1C [Example 327, 5-Cyano-N-(3-cyclopropyl-1H-indazol-5-yl)-6-(difluoromethyl)-3,4-dimethylpicolinamide] | > 7.00 | > 7.00
30 | N#Cc1ncc(C(=O)Nc2ccc3[nH]nc(-c4ccncc4)c3c2)cn1 [Example 25, 2-Cyano-N-(3-(pyridin-4-yl)-1H-indazol-5-yl)pyrimidine-5-carboxamide] | 6.00 to 7.00 | 6.00 to 7.00
31 | COc1c(C#N)cnc(C(=O)Nc2ccc3[nH]nc(-c4cnco4)c3c2)c1C [Example 211, 5-Cyano-4-methoxy-3-methyl-N-(3-(oxazol-5-yl)-1H-indazol-5-yl)picolinamide] | > 7.00 | > 7.00
32 | Cc1c(C#N)cnc(C(=O)Nc2ccc3[nH]nc(-c4ccn(C)c4)c3c2)c1C [Example 186, 5-cyano-3,4-dimethyl-N-(3-(1-methyl-1H-pyrrol-3-yl)-1H-indazol-5-yl)picolinamide] | > 7.00 | > 7.00
33 | Cc1cc(C#N)cnc1C(=O)Nc1ccc2[nH]nc(-c3cncc(C#N)c3)c2c1 [Example 42, 5-Cyano-N-(3-(5-cyanopyridin-3-yl)-1H-indazol-5-yl)-3-methylpicolinamide] | > 7.00 | 6.00 to 7.00
34 | Cc1cc(C#N)cnc1C(=O)Nc1ccc2[nH]nc(-c3cccc(N4C[C@@H](C)O[C@@H](C)C4)c3)c2c1 [Example 119, 5-Cyano-N-(3-(3-((2S,6R)-2,6-dimethylmorpholino)phenyl)-1H-indazol-5-yl)-3-methylpicolinamide] | > 7.00 | 6.00 to 7.00
35 | Cc1c(C#N)cnc(C(=O)Nc2ccc3[nH]nc(C)c3c2)c1Cl [Example 326, 3-Chloro-5-cyano-4-methyl-N-(3-methyl-1H-indazol-5-yl)picolinamide] | > 7.00 | 6.00 to 7.00
36 | N#Cc1cccc(C(=O)Nc2ccc3[nH]nc(-c4cnn(C(F)F)c4)c3c2)c1F [Example 167, 3-Cyano-N-(3-(1-(difluoromethyl)-1H-pyrazol-4-yl)-1H-indazol-5-yl)-2-fluorobenzamide] | > 7.00 | > 7.00
37 | Cc1c(C#N)cnc(C(=O)Nc2ccc3[nH]nc(/C=C/c4ccccn4)c3c2)c1C [Example 248, (E)-5-Cyano-3,4-dimethyl-N-(3-(2-(pyridin-2-yl)vinyl)-1H-indazol-5-yl)picolinamide] | > 7.00 | > 7.00
38 | N#Cc1cnc(C(=O)Nc2ccc3[nH]nc(-c4ccoc4)c3c2)c(Cl)c1 [Example 95, 3-chloro-5-cyano-N-(3-(furan-3-yl)-1H-indazol-5-yl)picolinamide] | > 7.00 | > 7.00
